Like-named read-outs stand apart in the source and are kept apart here.
Tests used:
Settings in all cases: Homo sapiens
[1] = test system: P70S6K (Thr389) phosphorylation (mTORC1) in MDA-MB-468 cells; experiment: Cell based AlphaLISA assay, mTOR kinase cellular assay: inhibition of p-P70S6K (T389) in MDA-MB-468 cells
Method in brief: (§1)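 MDA-MB-468 cells treated with compound at 0.017-1,000 nM for two to four hours at 37° C, then lysed. Phospho-AKT1/2/3 S473, 4EBP1 T37/46 and P70S6K T389 quantified by AlphaLISA SureFire Ultra in duplicate; IC50 from normalized regression with control-based normalization.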

[2] = test system: 4EBP1 (Thr37/46) phosphorylation (mTORC1) in MDA-MB-468 cells; experiment: Cell based AlphaLISA assay, mTOR kinase cellular assay: inhibition of p-4E-BP1 (T37/46) in MDA-MB-468 cells
Method in brief: as §1

[3] = test system: AKT1/2/3 (Ser473) phosphorylation (mTORC2) in MDA-MB-468 cells; experiment: Cell based AlphaLISA assay, mTOR kinase cellular assay: inhibition of p-Akt (S473) in MDA-MB-468 cells
Method in brief: as §1

[4] = read-out: pIC50 for Inhibition of mTORC1 and mTORC2 Substarte Phosphorylation p-P70S6K-(T389) (converted)
[5] = read-out: pIC50 for Inhibition of mTORC1 and mTORC2 Substarte Phosphorylation p-4E-BP1-(T37/46) (converted)
[6] = read-out: pIC50 for Inhibition of mTORC1 and mTORC2 Substarte Phosphorylation p-AKT1/2/3-(S473) (converted)

Row | IC50 ([1]; 4 h, two to four hours at 37° C., AlphaLisa SureFire Ultra, read-out: IC50 for Inhibition of mTORC1 and mTORC2 Substarte Phosphorylation, p-P70S6K-(T389)) | IC50 ([2]; 4 h, two to four hours at 37° C., AlphaLisa SureFire Ultra, read-out: IC50 for Inhibition of mTORC1 and mTORC2 Substarte Phosphorylation, p-4E-BP1-(T37/46)) | IC50 ([3]; 4 h, two to four hours at 37° C., AlphaLisa SureFire Ultra, read-out: IC50 for Inhibition of mTORC1 and mTORC2 Substarte Phosphorylation, p-AKT1/2/3-(S473)) | SMILES | IC50 [1, 4] | IC50 [2, 5] | IC50 [3, 6]
1 | 0.2 nM | > 1000 nM | > 1000 nM | CO[C@H]1C[C@@H]2CC[C@@H](C)[C@@](O)(O2)C(=O)C(=O)N2CCCC[C@H]2C(=O)O[C@H]([C@H](C)C[C@@H]2CC[C@@H](O)[C@H](OC)C2)CC(=O)[C@H](C)/C=C(\C)[C@@H](O)[C@@H](OC)C(=O)[C@H](C)C[C@H](C)/C=C/C=C/C=C/1C [Rapamycin, rapamycin, reference compound] | – | – | –
2 | – | – | – | CO[C@H]1C[C@@H]2CC[C@@H](C)[C@@](O)(O2)C(=O)C(=O)N2CCCC[C@H]2C(=O)O[C@H]([C@H](C)C[C@@H]2CC[C@@H](OC(=O)NCCOCCOCCOCCOCCC(=O)NCc3cnc(N4CCN(c5ncc(C(=O)N6CCc7cc(Cn8nc(-c9ccc%10oc(N)nc%10c9)c9c(N)ncnc98)ccc7C6)cn5)CC4)nc3)[C@H](OC)C2)C[C@@H](OC)[C@H](C)/C=C(\C)[C@@H](O)[C@@H](OC)C(=O)[C@H](C)C[C@H](C)/C=C/C=C/C=C/1C [Example 50] | ≤ 1 nM | ≤ 3.16 nM | 31.6 to 1000 nM
3 | – | – | – | CO[C@H]1C[C@@H]2CC[C@@H](C)[C@@](O)(O2)C(=O)C(=O)N2CCCC[C@H]2C(=O)O[C@H]([C@H](C)C[C@@H]2CC[C@@H](OC(=O)NCc3cnc(N4CCN(CCOCCN5CCN(c6ncc(C(=O)N7CCc8cc(Cn9nc(-c%10cnc%11[nH]ccc%11c%10)c%10c(N)ncnc%109)ccc8C7)cn6)CC5)CC4)nc3)[C@H](OC)C2)CC(=O)[C@H](C)/C=C(\C)[C@@H](O)[C@@H](OC)C(=O)[C@H](C)C[C@H](C)/C=C/C=C/C=C/1C [Example 127] | ≤ 1 nM | 3.16 to 31.6 nM | > 1000 nM
4 | – | – | – | CO[C@H]1C[C@@H]2CC[C@@H](C)[C@@](O)(O2)C(=O)C(=O)N2CCCC[C@H]2C(=O)O[C@H]([C@H](C)C[C@@H]2CC[C@@H](OC(=O)NCc3cnc(N4CCN(c5ncc(C(=O)NCCOCCOCCOCCOCCC(=O)N6CCc7cc(Cn8nc(-c9ccc%10oc(N)nc%10c9)c9c(N)ncnc98)ccc7C6)cn5)CC4)nc3)[C@H](OC)C2)CC(=O)[C@H](C)/C=C(\C)[C@@H](O)[C@@H](OC)C(=O)[C@H](C)C[C@H](C)/C=C/C=C/C=C/1C [Example 27] | ≤ 1 nM | ≤ 3.16 nM | 3.16 to 31.6 nM
5 | – | – | – | CO[C@H]1C[C@@H]2CC[C@@H](C)[C@@](O)(O2)C(=O)C(=O)N2CCCC[C@H]2C(=O)O[C@H]([C@H](C)C[C@@H]2CC[C@@H](OC(=O)NCCOCCOCCOCCOCCC(=O)NCCOCCOCCOCCOCCC(=O)N3CCc4cc(Cn5nc(-c6ccc7oc(N)nc7c6)c6c(N)ncnc65)ccc4C3)[C@H](OC)C2)CC(=O)[C@H](C)/C=C(\C)[C@@H](O)[C@@H](OC)C(=O)[C@H](C)C[C@H](C)/C=C/C=C/C=C/1C [Example 15] | ≤ 1 nM | ≤ 3.16 nM | 3.16 to 31.6 nM
6 | – | – | – | CO[C@H]1C[C@@H]2CC[C@@H](C)[C@@](O)(O2)C(=O)C(=O)N2CCCC[C@H]2C(=O)O[C@H]([C@H](C)C[C@@H]2CC[C@@H](OC(=O)NCc3cnc(N4CCN(c5ncc(C(=O)NCCOCCOCCOCCOCCC(=O)N6CCc7cc(Cn8nc(-c9ccc%10oc(N)nc%10c9)c9c(N)ncnc98)ccc7C6)cn5)CC4CO)nc3)[C@H](OC)C2)CC(=O)[C@H](C)/C=C(\C)[C@@H](O)[C@@H](OC)C(=O)[C@H](C)C[C@H](C)/C=C/C=C/C=C/1C (stereo partly drawn) [Example 40] | ≤ 1 nM | ≤ 3.16 nM | 3.16 to 31.6 nM
7 | – | – | – | CO[C@H]1C[C@@H]2CC[C@@H](C)[C@@](O)(O2)C(=O)C(=O)N2CCCC[C@H]2C(=O)O[C@H]([C@H](C)C[C@@H]2CC[C@@H](OC(=O)N3CCc4nc(N5CCN(c6ncc(C(=O)NCCOCCOCCOCCOCCC(=O)N7CCc8cc(Cn9nc(-c%10cnc%11[nH]ccc%11c%10)c%10c(N)ncnc%109)ccc8C7)cn6)CC5)ncc4C3)[C@H](OC)C2)CC(=O)[C@H](C)/C=C(\C)[C@@H](O)[C@@H](OC)C(=O)[C@H](C)C[C@H](C)/C=C/C=C/C=C/1C [Example 36] | ≤ 1 nM | ≤ 3.16 nM | > 1000 nM
8 | – | – | – | CO[C@H]1C[C@@H]2CC[C@@H](C)[C@@](O)(O2)C(=O)C(=O)N2CCCC[C@H]2C(=O)O[C@H]([C@H](C)C[C@@H]2CC[C@@H](OC(=O)N3CCc4nc(N5CCN(c6ncc(C(=O)N7CCN(c8ncc(C(=O)N9CCc%10cc(Cn%11nc(-c%12ccc%13oc(N)nc%13c%12)c%12c(N)ncnc%12%11)ccc%10C9)cn8)CC7)cn6)CC5)ncc4C3)[C@H](OC)C2)CC(=O)[C@H](C)/C=C(\C)[C@@H](O)[C@@H](OC)C(=O)[C@H](C)C[C@H](C)/C=C/C=C/C=C/1C [Example 62] | 1 to 10 nM | > 1000 nM | > 1000 nM
9 | – | – | – | CO[C@H]1C[C@@H]2CC[C@@H](C)[C@@](O)(O2)C(=O)C(=O)N2CCCC[C@H]2C(=O)O[C@H]([C@H](C)C[C@@H]2CC[C@@H](OC(=O)NCCOCCOCCOCCOCCOCCOCCOCCOCCC(=O)N3CCC(n4nc(-c5ccc6oc(N)nc6c5)c5c(N)ncnc54)CC3)[C@H](OC)C2)CC(=O)[C@H](C)/C=C(\C)[C@@H](O)[C@@H](OC)C(=O)[C@H](C)C[C@H](C)/C=C/C=C/C=C/1C [Example 19] | ≤ 1 nM | ≤ 3.16 nM | ≤ 3.16 nM
10 | – | – | – | CO[C@H]1C[C@@H]2CC[C@@H](C)[C@@](O)(O2)C(=O)C(=O)N2CCCC[C@H]2C(=O)O[C@H]([C@H](C)C[C@@H]2CC[C@@H](OC(=O)NCCOCCC(=O)NCc3cnc(N4CCN(C(=O)CCOCCN5CCN(c6ncc(C(=O)NCCCCn7nc(-c8cnc9[nH]ccc9c8)c8c(N)ncnc87)cn6)CC5)CC4)nc3)[C@H](OC)C2)CC(=O)[C@H](C)/C=C(\C)[C@@H](O)[C@@H](OC)C(=O)[C@H](C)C[C@H](C)/C=C/C=C/C=C/1C [Example 68] | ≤ 1 nM | ≤ 3.16 nM | > 1000 nM
11 | – | – | – | CO[C@H]1C[C@@H]2CC[C@@H](C)[C@@](O)(O2)C(=O)C(=O)N2CCCC[C@H]2C(=O)O[C@H]([C@H](C)C[C@@H]2CC[C@@H](OC(=O)N3CCc4nc(N5CCN(C(=O)CCOCCN6CCN(c7ncc(C(=O)N8CCc9cc(Cn%10nc(-c%11cnc%12[nH]ccc%12c%11)c%11c(N)ncnc%11%10)ccc9C8)cn7)CC6)CC5)ncc4C3)[C@H](OC)C2)CC(=O)[C@H](C)/C=C(\C)[C@@H](O)[C@@H](OC)C(=O)[C@H](C)C[C@H](C)/C=C/C=C/C=C/1C [Example 124] | ≤ 1 nM | ≤ 3.16 nM | 3.16 to 31.6 nM
12 | – | – | – | CO[C@H]1C[C@@H]2CC[C@@H](C)[C@@](O)(O2)C(=O)C(=O)N2CCCC[C@H]2C(=O)O[C@H]([C@H](C)C[C@@H]2CC[C@@H](OC(=O)NCCOCCOCCOCCOCCOCCOCCOCCOCCC(=O)N3CCc4cc(Cn5nc(-c6ccc7oc(N)nc7c6)c6c(N)ncnc65)ccc4C3)[C@H](OC)C2)CC(=O)[C@H](C)/C=C(\C)[C@@H](O)[C@@H](OC)C(=O)[C@H](C)C[C@H](C)/C=C/C=C/C=C/1C [Example 2] | ≤ 1 nM | ≤ 3.16 nM | 3.16 to 31.6 nM
13 | – | – | – | CO[C@H]1C[C@@H]2CC[C@@H](C)[C@@](O)(O2)C(=O)C(=O)N2CCCC[C@H]2C(=O)O[C@H]([C@H](C)C[C@@H]2CC[C@@H](OC(=O)NCCOCCOCCOCCOCCC(=O)NCc3cnc(N4CCN(c5ncc(C(=O)NCCCCn6nc(-c7cnc8[nH]ccc8c7)c7c(N)ncnc76)cn5)CC4)nc3)[C@H](OC)C2)CC(=O)[C@H](C)/C=C(\C)[C@@H](O)[C@@H](OC)C(=O)[C@H](C)C[C@H](C)/C=C/C=C/C=C/1C [Example 47] | ≤ 1 nM | ≤ 3.16 nM | 3.16 to 31.6 nM
14 | – | – | – | CO[C@H]1C[C@@H]2CC[C@@H](C)[C@@](O)(O2)C(=O)C(=O)N2CCCC[C@H]2C(=O)O[C@H]([C@H](C)C[C@@H]2CC[C@@H](OC(=O)N3CCc4nc(N5CCN(c6ncc(C(=O)NCCOCCOCCOCCOCCC(=O)N7CCc8cc(Cn9nc(-c%10ccc%11oc(N)nc%11c%10)c%10c(N)ncnc%109)ccc8C7)cn6)[C@@H](C(=O)O)C5)ncc4C3)[C@H](OC)C2)C[C@@H](OC)[C@H](C)/C=C(\C)[C@@H](O)[C@@H](OC)C(=O)[C@H](C)C[C@H](C)/C=C/C=C/C=C/1C [Example 105] | ≤ 1 nM | 3.16 to 31.6 nM | > 1000 nM
15 | – | – | – | CO[C@H]1C[C@@H]2CC[C@@H](C)[C@@](O)(O2)C(=O)C(=O)N2CCCC[C@H]2C(=O)O[C@H]([C@H](C)C[C@@H]2CC[C@@H](OC(=O)N3CCN(c4ncc(C(=O)NCCOCCOCCOCCOCCOCCC(=O)N5CCc6cc(Cn7nc(-c8cnc9[nH]ccc9c8)c8c(N)ncnc87)ccc6C5)cn4)CC3)[C@H](OC)C2)CC(=O)[C@H](C)/C=C(\C)[C@@H](O)[C@@H](OC)C(=O)[C@H](C)C[C@H](C)/C=C/C=C/C=C/1C [Example 37] | ≤ 1 nM | ≤ 3.16 nM | > 1000 nM
16 | – | – | – | CO[C@H]1C[C@@H]2CC[C@@H](C)[C@@](O)(O2)C(=O)C(=O)N2CCCC[C@H]2C(=O)O[C@H]([C@H](C)C[C@@H]2CC[C@@H](OC(=O)NCCOCCOCCOCCOCCC(=O)NCCOCCOCCOCCOCCC(=O)N3CCc4cc(Cn5nc(-c6ccc7oc(N)nc7c6)c6c(N)ncnc65)ccc4C3)[C@H](OC)C2)C[C@@H](OC)[C@H](C)/C=C(\C)[C@@H](O)[C@@H](OC)C(=O)[C@H](C)C[C@H](C)/C=C/C=C/C=C/1C [Example 17] | ≤ 1 nM | ≤ 3.16 nM | 3.16 to 31.6 nM
